According to patent publication US10752933B2, “Methods for the identification, characterization, and use of inhibitors of the fructose-asparagine utilization pathway” (priority 2015, dated 2020):
“Also recorded” adds a separate entry of the source.

Columns and labels:
Type in all cases: cell-based, Salmonella enterica serovar Typhimurium
[1] = system: wild-type MA43 Salmonella; assay: Growth of Salmonella on Amadori products as sole carbon source; details: NCE minimal medium, carbon source at 5 mM, 37° C.
Protocol: FIG. 2A to FIG. 2E are graphs showing growth of wild-type and fraB1::kan mutant Salmonella on Amadori products. Growth of wild-type MA43 and fraB1::kan mutant MA59 on F-Asn (FIG. 2A), F-Arg (FIG. 2B), F-Lys (FIG. 2C), asparagine, arginine, lysine, or glucose (FIG. 2D). Bacteria were grown overnight in Luria Bertani (LB) broth at 37° C. with shaking, centrifuged, resuspended in water, and subcultured 1:1000 into minimal “no carbon E” (NCE) medium (containing trace metals) and the indicated carbon source at 5 mM. The optical density at 600 nm was then read at time points during growth at 37° C. with shaking. Controls included NCE with no carbon source, and NCE with glucose that was not inoculated, as a sterility control (FIG. 2D). FIG. 2E is a graph showing complementation of a fraB1::kan mutation with plasmid pASD5006 encoding the fra island (ASD6000) or the vector control, pWSK29 (ASD6010). Each point represents the mean of three cultures with error bars indicating standard deviation. FIG. 2A to FIG. 2C: ● wild-type; ◯ fraB mutant; FIG. 2D: ● Glucose wild-type; ◯ Glucose fraB mutant; □ No carbon source; ● Sterility; ⋄ Asn wild-type; * Arg wild-type; × Lys wild type; FIG. 2E: ◯ Glucose fraB mutant+pASD5006; ● Glucose fraB mutant+vector; ▪ F-Asn fraB mutant+pASD5006; F-Asn fraB mutant+vector; y-axis: OD600; x-axis: time (hours).
Amadori products most often result from a spontaneous reaction between a carbonyl group (often of glucose, although numerous other compounds can also react) and an amino group of an amino acid in vivo, and are then referred to as non-enzymatic glycation products. Zhang et al., 8 J. Proteome. Res. 754 (2009); Tessier, 58 Pathol. Biol. 214 (2010). With F-Lys and fructose-arginine (F-Arg) this can happen with the free amino acid, or the side groups of the lysine and arginine residues of a protein. In contrast, fructose-asparagine (F-Asn) can only result from reaction of glucose with the alpha amino group of free asparagine or the N-terminal asparagine of a protein. […]

[2] = system: ΔfraB::kan (HMB206) fraB mutant; assay: Growth inhibition of fraB mutant by F-Asn in M9 glucose medium (IC50, IC90, MBC)
Protocol: (§1) FIG. 25 reflects the determination of the IC50 and IC90 of F-Asn to a fraB mutant. Wild-type (strain 14028, ●), ΔfraB::kan (HMB206, □) or Δfra island (HMB205, ▴) were grown in M9 minimal medium containing 5 mM glucose and varying concentrations of F-Asn. The data points represent the optical density obtained after 15 hours of growth at 37° C.
(§2) Growth curves were performed using clear, flat-bottom, 96-well plates. Minimal media with the specified carbon source were prepared and overnight cultures were washed twice with sterile water. In each well, 198-μl aliquots of media were inoculated with 2 μl of washed overnight cultures. A Breathe-Easy membrane film (Diversified Biotech) was placed over each 96-well plate. Growth over 18 hr at 37° C. was measured using hourly OD600 measurements in a SpectraMax M5 (Molecular Devices) Microplate Reader and SoftMax Pro 6.1 software.
(§3) To determine if F-Asn was bacteriostatic or bactericidal to the fraB mutant, the 50% and 90% inhibitory concentration (IC50 and IC90) and the minimum bactericidal concentration (MBC) were characterized. The IC50 and IC90 were determined by adding increasing concentrations of F-Asn to M9 minimal medium containing glucose as the carbon source. Growth of the fraB mutant was then monitored in these media. […] To determine the MBC, a small aliquot of these same cultures was dilution-plated onto LB agar.

Wild-type (strain 14028) = assay: Growth inhibition by F-Asn in M9 glucose medium, wild-type; details: M9 minimal medium with glucose and F-Asn
Protocol: as §1, §2, §3

Δfra island (HMB205) = assay: Growth inhibition by F-Asn in M9 glucose medium, fra island mutant; details: M9 minimal medium with glucose and F-Asn
Protocol: as §1, §2, §3

[3] = system: wild-type MA43 Salmonella; assay: Growth with F-Asn under aerobic and anaerobic conditions with or without tetrathionate; details: 5 mM F-Asn
Protocol: FIG. 4A to FIG. 4D show growth of Salmonella on F-Asn in the presence or absence of tetrathionate or oxygen. Growth of wild-type MA43 and fraB1::kan mutant MA59 on 5 mM F-Asn or 5 mM glucose anaerobically (FIG. 4A and FIG. 4B) or aerobically (FIG. 4C and FIG. 4D) in the presence (FIG. 4A and FIG. 4C) or absence (FIG. 4B and FIG. 4D) of 40 mM tetrathionate (S406 22). Bacteria were grown overnight in LB at 37° C. shaking, centrifuged, resuspended in water, and subcultured 1:1000 into NCE medium containing the indicated carbon source. The optical density at 600 nm was then read at time points during growth at 37° C. with shaking. Each point represents the mean of four cultures with error bars indicating standard deviation. ● F-Asn wild-type; ▪ F-Asn fraB mutant; ▴ Glucose wild-type; ▾ Glucose fraB mutant; x-axis: time (hours); y-axis: OD600.
Growth with F-Asn was tested under aerobic and anaerobic conditions in the presence or absence of the terminal electron acceptor tetrathionate (FIG. 4A to FIG. 4D). […] Competition experiments in which the wild-type and fraB1::kan mutant were grown in the same culture were performed in minimal medium containing F-Asn. As expected, the mutant was severely attenuated during aerobic and anaerobic growth, and in the presence or absence of tetrathionate (FIG. 5). Indeed, the attenuation was most severe during anaerobic growth in the presence of tetrathionate.

Row | Compound | growth on Amadori product as sole carbon source [1] | IC50 ([2]; Salmonella enterica, M9 minimal medium, 5 mM glucose, varying F-Asn, optical density after 15 hours at 37° C., 95% confidence interval 9 to 40 μM) [µM] | IC90 ([2]; Salmonella enterica, M9 minimal medium, 5 mM glucose, varying F-Asn, optical density after 15 hours at 37° C., 95% confidence interval 82 to 368 μM) [µM] | minimum bactericidal concentration (MBC) ([2]; aliquot of IC50 cultures dilution-plated onto LB agar, up to highest F-Asn concentrations tested) | bacteriostatic or bactericidal to the fraB mutant ([2]; in vitro, cultures dilution-plated onto LB agar) | inhibitory to growth (Wild-type (strain 14028)) | inhibitory to growth (Δfra island (HMB205)) | Salmonella doubling time on F-Asn ([3]; aerobically with tetrathionate) [h] | Salmonella doubling time on F-Asn ([3]; aerobically without tetrathionate) [h] | Salmonella doubling time on F-Asn ([3]; anaerobically with tetrathionate) [h] | Salmonella doubling time on F-Asn ([3]; anaerobically without tetrathionate) [h]
1 | fructose-arginine [F-Arg] | unable to grow |  |  |  |  |  |  |  |  |  | 
2 | NC(=O)C[C@@H](NCC1(O)OC[C@@H](O)[C@@H](O)[C@@H]1O)C(=O)O (stereo partly drawn) [F-Asn, (2R)-4-amino-4-oxo-2-[[(3S,4R,5R)-2,3,4,5-tetrahydroxyoxan-2-yl]methylamino]butanoic acid] | grew as well on F-Asn as on glucose | 19 | 174 | no MBC was revealed | bacteriostatic; also recorded: bacteriostatic, not bactericidal | not | not | 1.6 ± 0.1 | 2.0 ± 0.3 | 1.9 ± 0.1 | 2.9 ± 0.4
3 | fructose-lysine [F-Lys] | grew slowly and with low yield |  |  |  |  |  |  |  |  |  | 
